Patent US20080194466A1, “(5Z)-5-(6-Quinoxalinylmethylidene)-2-[(2,4,6-Trichlorophenyl)Amino]-1,3-Thiazol-4(5H)-One” (priority 2005, published 2008)
Structures can show the parent of a compound that is named as a salt.

What was measured:
[1] = Oral bioavailability (blood exposure, DNAUC) in rats; format: in vivo, male Sprague-Dawley rats; details: for Oral DNAUC rats (Sprague-Dawley): sodium salts, oral gavage, dose ~1-4 mg/kg, 50% PEG-400, 10% ethanol, 40% of 40% (w/v) aqueous Encapsin, blood, LC/MS/MS, 0-1440 min
Method: The sodium salt of Compound A was fed to male Sprague-Dawley rats by oral gavage in a formulation with 50% PEG-400, 10% ethanol, 40% of 40% (w/v) aqueous Encapsin in water at a dose of between 1 and 4 mg/kg (16 mL of dose solution per kg). Blood (120 microliters) was sampled at the following time intervals: 0, 20, 40, 60, 120, 180, 240, 360, 480, and 1440 min. The concentration of Compound A was quantified by LC/MS/Ms analysis of an aliquot (25 microliters blood+25 microliters water) of these samples and the overall blood exposure reported as the Dose-Normalised Area Under the Curve (DNAUC) from a concentration versus time plot and expressed in the units microgram hours per milliliter per […] per kilogram (ug.h/mL/mg/kg). The oral exposures of the sodium salt of Compound B and the sodium salt of Compound C were quantified by the same method.

[2] = molecular target: T1, hYAK3 kinase enzyme (Homo sapiens, UniProt O43781); assay: in vitro hYAK3 kinase enzyme inhibition; format: biochemical; details: in vitro assays; compared with Compound B and Compound C
T1 sequence (O43781 1-588): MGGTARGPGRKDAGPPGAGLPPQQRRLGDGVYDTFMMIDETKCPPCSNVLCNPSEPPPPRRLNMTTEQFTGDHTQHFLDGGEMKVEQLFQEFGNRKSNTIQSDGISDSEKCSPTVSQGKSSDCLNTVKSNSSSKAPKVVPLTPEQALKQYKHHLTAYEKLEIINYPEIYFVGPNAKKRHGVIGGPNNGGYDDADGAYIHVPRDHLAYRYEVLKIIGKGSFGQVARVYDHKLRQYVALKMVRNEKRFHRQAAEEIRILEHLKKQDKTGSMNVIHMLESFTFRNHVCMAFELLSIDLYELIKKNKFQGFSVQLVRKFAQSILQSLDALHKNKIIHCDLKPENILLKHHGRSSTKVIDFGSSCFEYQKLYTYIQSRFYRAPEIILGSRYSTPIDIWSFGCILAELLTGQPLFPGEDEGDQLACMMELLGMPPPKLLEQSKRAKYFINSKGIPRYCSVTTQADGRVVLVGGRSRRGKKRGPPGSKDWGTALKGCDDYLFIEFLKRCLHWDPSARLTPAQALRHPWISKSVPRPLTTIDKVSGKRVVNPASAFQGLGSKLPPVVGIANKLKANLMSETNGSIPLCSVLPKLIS
Method: Compound A is tested for its ability to inhibit the hYAK3 kinase enzyme by known methods such as those described in International Application No. PCT/US2003/037658.

| Oral DNAUC rats (Sprague-Dawley) [1] | Structure (SMILES) | bioavailability in vivo ([1]; compared with the most closely related compounds of PCT/US2003/037658) | hYAK3 kinase enzyme inhibition activity [2] |
| --- | --- | --- | --- |
|  | O=C1NC(=Nc2c(Cl)cc(Cl)cc2Cl)S/C1=C\c1ccc2nccnc2c1 [Compound A, (5Z)-5-(6-quinoxalinylmethylidene)-2-[(2,4,6-trichlorophenyl)amino]-1,3-thiazol-4(5H)-one] | significantly greater bioavailability in vivo | activity similar to Compound B (described herein) and Compound C |
| 0.34 ug · h/mL/min/kg | O=C1NC(=Nc2ccccc2Cl)S/C1=C\c1ccc2nccnc2c1 [C•Na, 2-(2-chloro-phenylimino)-5-(quinoxalin-6-ylmethylene)-thiazolidin-4-one sodium salt, reference compound] |  |  |
| 26.11 ug · h/mL/min/kg | O=C1N=C(Nc2c(Cl)cc(Cl)cc2Cl)S/C1=C\c1ccc2nccnc2c1.[Na] [Compound A•Na, (5Z)-5-(6-quinoxalinylmethylidene)-2-[(2,4,6-trichlorophenyl)amino]-1,3-thiazol-4(5H)-one sodium salt] |  |  |
| 0.49 ug · h/mL/min/kg | O=C1NC(=Nc2c(Cl)cccc2Cl)S/C1=C\c1ccc2ncccc2c1 [Compound B•Na, 2-(2,6-dichloro-phenylimino)-5-(quinolin-6-ylmethylene)-thiazolidin-4-one sodium salt, reference compound] |  |  |
